US20170362292A1, “S-Alkylated Hepcidin Peptides and Methods of Making and Using Thereof” (priority 2014, published 2017)
Like-named read-outs stand apart in the source and are kept apart here.

Assays:
human ferroportin-GFP = molecular target: T1, human ferroportin-GFP (Homo sapiens, UniProt Q9NP59); assay: cellular assay based on Fpn degradation (HEK293:TREX-Fpn-GFP cells, flow cytometry); assay type: cell-based
T1 sequence (Q9NP59 1-571): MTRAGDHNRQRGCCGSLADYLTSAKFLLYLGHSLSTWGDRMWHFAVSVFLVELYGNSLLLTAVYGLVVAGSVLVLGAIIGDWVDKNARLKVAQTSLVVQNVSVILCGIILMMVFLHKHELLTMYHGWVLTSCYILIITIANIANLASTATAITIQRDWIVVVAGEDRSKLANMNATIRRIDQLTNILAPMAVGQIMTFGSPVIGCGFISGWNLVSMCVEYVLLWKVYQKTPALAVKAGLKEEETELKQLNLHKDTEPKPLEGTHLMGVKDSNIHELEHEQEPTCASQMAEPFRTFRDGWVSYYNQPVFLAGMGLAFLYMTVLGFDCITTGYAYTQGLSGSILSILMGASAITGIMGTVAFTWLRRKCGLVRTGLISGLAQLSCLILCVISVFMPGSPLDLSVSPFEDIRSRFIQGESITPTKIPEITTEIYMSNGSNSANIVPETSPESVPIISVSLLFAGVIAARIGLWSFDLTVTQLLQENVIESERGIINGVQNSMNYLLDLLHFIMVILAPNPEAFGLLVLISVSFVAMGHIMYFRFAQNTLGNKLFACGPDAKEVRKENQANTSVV
Protocol: The S-alkylated hepcidin peptides were tested in vitro using a previously described cellular assay based on Fpn degradation. See e.g., Nemeth, et al. (2006) Blood 107: 328. Briefly, HEK293:TREX-Fpn-GFP, a cell line stably transfected with the human ferroportin-GFP construct under the control of doxycycline-inducible promoter, was plated on poly-D-lysine-coated plates in the presence of 20 μM FAC. Fpn expression was induced with 500 ng/mL doxycycline treatment for 24 hours. Then, doxycycline was washed off, and cells were treated with peptides for 24 hours. Cells were then trypsinized and resuspended at 1×10^6 cells/mL, and the intensity of green fluorescence was analyzed by flow cytometry using FAC Scan (fluorescence activated cell scanner) Analytic Flow Cytometer (Becton Dickinson, San Jose, Calif.) with CellQuest version 3.3 software. Cells not induced with doxycycline to express Fpn-GFP were used to establish a gate to exclude background fluorescence. Cells induced with doxycycline, but not treated with any peptides, were used as the positive control. Each peptide treatment was repeated independently 3 to 6 times. […] Hydrophobicity may also play a role, as activity increases in the carboxy-esters-substituent(s) order: —CH3<—C2H5<—C4H9 (PR73 SC<PR73 SB<PR73 SA).
In vitro activity may be measured by the dose-dependent loss of fluorescence of cells engineered to display ferroportin fused to green fluorescent protein as in Nemeth et al. (2006) Blood 107:328-33.

[1] = serum iron in C57BL/6 mice after intraperitoneal peptide injection; assay type: in vivo; conditions: 50-100 nmoles/mouse, vs PBS-injected mice
Protocol: Based on in vitro results, PR73SH was selected as a suitable candidate for animal studies, which were carried out as previously described. See Preza, et al. (2011) J. Clin. Invest. 121:4880; Ramos, et al. (2012) Blood 120:3829; and Nemeth, et al. (2006) Blood 107:328. Animal studies were approved by the Animal Research Committee at UCLA. Briefly, C57BL/6 mice were obtained from The Jackson Laboratory (Bar Harbor, Me.) and were maintained on NIH 31 rodent diet (iron content 336 mg/kg; Harlan Teklad, Indianapolis, […]). Mice were injected intraperitoneally either with 100 μL PBS (control) or with 50 or 100 nmoles peptide in 100 μL PBS. Mice were killed 6, 24, and 48 hours later, blood was collected by cardiac puncture, and serum was separated using Microtainer tubes (Becton Dickinson, Franklin Lakes, N.J.). Serum iron was determined by using a colorimetric assay (Diagnostic Chemicals, Oxford, Conn.), which was modified for the microplate format so that 50 μL serum was used per measurement. See Nemeth, et al. (2004) J. Clin. Invest. 113(9): 1271-1276. The results were expressed as the percentage of decrease in serum iron when compared with the average value of serum iron levels in PBS-injected mice.
In vivo activity of PR73SH and PR73 was compared by assaying serum iron levels at 3 time points: (6, 24, and 48 hours) and concentrations that were previously shown to be sufficient for PR73 to exert potent bioactivity (50-100 nmoles/mouse).

[2] = storage stability in DMSO (LC/MS/MS); assay type: physicochemical; conditions: 10 mM solution, room temperature, 30 days
From the text: Thus, the present invention also provides storage stable compositions comprising one or more S-alkylated hepcidin peptides.

[3] = peptide treatment 24 hours, loss of GFP fluorescence relative to Hep25, read-out: EC50 [nM] TREX-hFpn-GFP cells

With `CCCCCCCCCCCCCCCCNC(=O)CN(CC(N)=O)C(=O)CCCCCNC(=O)C[C@H](Cc1ccccc1)NC(=O)[C@H](CCCNC(=N)N)NC(=O)[C@H](CS)NC(=O)[C@H](CCCNC(=N)N)NC(=O)C[C@@H]1CCCN1C(=O)[C@@H](NC(=O)[C@H](Cc1c[nH]cn1)NC(=O)[C@@H](NC(=O)CNCC(=O)O)[C@@H](C)O)C(c1ccccc1)c1ccccc1` [PR73, reference compound] the EC50 (human ferroportin-GFP; [3]) was 4.2 ± 0.3 nM, the serum iron ([1]; 6 hour time point) was “decreased serum iron” and the serum iron ([1]; 24 hour time point) was “decreased serum iron”.

For `CCCCCCCCCCCCCCCCNC(=O)CN(CC(N)=O)C(=O)CCCCCNC(=O)C[C@H](Cc1ccccc1)NC(=O)[C@H](CCCNC(=N)N)NC(=O)[C@H](CSC(=CC(=O)OCC)C(=O)OCC)NC(=O)[C@H](CCCNC(=N)N)NC(=O)C[C@@H]1CCCN1C(=O)[C@@H](NC(=O)[C@H](Cc1c[nH]cn1)NC(=O)[C@@H](NC(=O)CNCC(=O)O)[C@@H](C)O)C(c1ccccc1)c1ccccc1` [PR73SB], the DC50 (human ferroportin-GFP; [3]) was 10.4 ± 1.2 nM.

In the case of `CCCCCCCCCCCCCCCCNC(=O)CN(CC(N)=O)C(=O)CCCCCNC(=O)C[C@H](Cc1ccccc1)NC(=O)[C@H](CCCNC(=N)N)NC(=O)[C@H](CSC(=CC(=O)OC)C(=O)OC)NC(=O)[C@H](CCCNC(=N)N)NC(=O)C[C@@H]1CCCN1C(=O)[C@@H](NC(=O)[C@H](Cc1c[nH]cn1)NC(=O)[C@@H](NC(=O)CNCC(=O)O)[C@@H](C)O)C(c1ccccc1)c1ccccc1` [PR73SC], the DC50 (human ferroportin-GFP; [3]) is reported as 12.6 ± 1.8 nM.

Work on `CCCCCCCCCCCCCCCCNC(=O)CN(CC(N)=O)C(=O)CCCCCNC(=O)C[C@H](Cc1ccccc1)NC(=O)[C@H](CCCNC(=N)N)NC(=O)[C@H](CSC=CC(=O)O)NC(=O)[C@H](CCCNC(=N)N)NC(=O)C[C@@H]1CCCN1C(=O)[C@@H](NC(=O)[C@H](Cc1c[nH]cn1)NC(=O)[C@@H](NC(=O)CNCC(=O)O)[C@@H](C)O)C(c1ccccc1)c1ccccc1` [PR73SD] yielded a DC50 (human ferroportin-GFP; [3]) of 218 ± 13.4 nM.

In the case of `CCCCCCCCCCCCCCCCNC(=O)CN(CC(N)=O)C(=O)CCCCCNC(=O)C[C@H](Cc1ccccc1)NC(=O)[C@H](CCCNC(=N)N)NC(=O)[C@H](CSC(=CS(=O)(=O)C(C)(C)C)S(=O)(=O)C(C)(C)C)NC(=O)[C@H](CCCNC(=N)N)NC(=O)C[C@@H]1CCCN1C(=O)[C@@H](NC(=O)[C@H](Cc1c[nH]cn1)NC(=O)[C@@H](NC(=O)CNCC(=O)O)[C@@H](C)O)C(c1ccccc1)c1ccccc1` [PR73SF], the DC50 (human ferroportin-GFP; [3]) is reported as 10 ± 3.4 nM.

`CCCCCCCCCCCCCCCCNC(=O)CN(CC(N)=O)C(=O)CCCCCNC(=O)C[C@H](Cc1ccccc1)NC(=O)[C@H](CCCNC(=N)N)NC(=O)[C@H](CSC(=CC(N)=O)C(N)=O)NC(=O)[C@H](CCCNC(=N)N)NC(=O)C[C@@H]1CCCN1C(=O)[C@@H](NC(=O)[C@H](Cc1c[nH]cn1)NC(=O)[C@@H](NC(=O)CNCC(=O)O)[C@@H](C)O)C(c1ccccc1)c1ccccc1` [PR73SG] showed a DC50 (human ferroportin-GFP; [3]) of 8.4 ± 2.5 nM.

For `CCCCCCCCCCCCCCCCNC(=O)CN(CC(N)=O)C(=O)CCCCCNC(=O)C[C@H](Cc1ccccc1)NC(=O)[C@H](CCCNC(=N)N)NC(=O)[C@H](CSC(=CP(=O)(OCC)OCC)P(=O)(OCC)OCC)NC(=O)[C@H](CCCNC(=N)N)NC(=O)C[C@@H]1CCCN1C(=O)[C@@H](NC(=O)[C@H](Cc1c[nH]cn1)NC(=O)[C@@H](NC(=O)CNCC(=O)O)[C@@H](C)O)C(c1ccccc1)c1ccccc1` [PR73SH], the DC50 (human ferroportin-GFP; read-out: EC50 [nM] TREX-hFpn-GFP cells, peptide treatment 24 hours, loss of GFP fluorescence relative to Hep25) was 1.1 ± 0.1 nM, the serum iron ([1]; 6 hour time point) was “decreased serum iron” and the serum iron ([1]; 24 hour time point) was “decreased serum iron”. For the same compound, the stability [2] was 99.5±0.5%.
